According to patent publication EP0808325B1, “[…] […] SERIES FOR […] GABA RECEPTOR” (priority 1994, dated 1996):

How the values were obtained:
[1] = tested on: metrazol induced convulsions; assay: animal or person; assay type: in vivo, mice
mice = assay: light/dark transition test; assay type: in vivo, N.I.H. Swiss-Webster mice; details: IP
Excerpt: The light/dark transition test (Crawley and Goodwin, Pharmacol. Biochem. Behav. 13:67-70 1980) is based on the observation that rodents naturally tend to explore novel environments, but open, brightly lit arenas are aversive to the rodents and inhibit exploratory behavior (Christmas and Maxwell, Neuropharmacol. 9:17-29 1970; File, J. Neurosci. Meth. 2:219-238 1980).
Male N.I.H. Swiss-Webster mice (Harlan, Harlan, Indianapolis, IN) weighing 15-20 g were housed four per cage in polyethylene cages with sawdust bedding. The colony room was environmentally controlled (22°C) with a 12 hr light/dark cycle (0600-1800 hr). Food and water were available ad libitum, except during testing. The experiments were run from 0700-1500 hr and groups were counterbalanced for time of day effects. Mice were only administered drug or vehicle once.
The method used was a modification of methods previously described (Wieland et al., Br. Res. 565:263-268 (1991)). The apparatus included two 2-compartment automated test chambers (Model RXYZCM16, Omnitech Electronics, Columbus, OH). The open compartment was connected to the enclosed compartment via a 7.5 x 7.5 cm passageway. The open compartment was brightly lit using a 200 W incandescent light bulb. The experimental room was kept dark. Interruptions of the infrared beams in either chamber were automatically recorded by being linked to a computer through a Digiscan Analyzer (Omnitech Electronics) and the data was analyzed using the Integrated Lab Animal Monitoring System (Omnitech Electronics).
N.I.H. Swiss-Webster mice were administered vehicle or test drug intraperitoneally (IP), 10 min later they were placed in the center of the lit compartment. The number of transitions between the lit and dark chambers, total activity in the lit chamber and the time spent in the lit chamber were measured during a 10 min test period.

rats = assay: Vogel test; assay type: in vivo; details: i.c.v., b-CD, 10 ug
Excerpt: The Vogel test is based on the development of a conflict between a highly motivated behavior and an aversion. For this test, the strong motivation is thirst. The animal is water deprived for 12-16 hrs to produce the motivation to drink. During the training period the animals are exposed to the testing environment so they become accustomed to the drinking spout and minimize the fear of a novel environment. Following training, the animals are allowed access to water for 2 hrs. During this time, the animals will drink and eat their normal amount of water and food, compensating for the deprivation time. However, this schedule still produces a strong motivation to drink during the testing period.
Having been deprived of water for twelve to sixteen hours, an animal is placed in a test cage where it is allowed to drink freely for five minutes. This period is used to habituate the animal to the environment and the drinking spout Following the training period, animals have access to water and food in their home cage for 2 hrs. Food is available at all times. Twenty-four hours later, drug is administered to the animal intracerebroventricularly.
After an indicated delay started from the time of injection the animal is again placed in the test cage for ten minutes. A computer counts each time the animal licks, and after every twentieth lick administers a mild electric stimulus across the tongue and/or feet. The electrical stimulus consists of a 0.6 mA current with a duration of 100 msec. This procedure produces a state of conflict for the animal that is reduced by the administration of clinically used anxiolytic agents (i.e., Valium). For dose-response curves, separate groups of animals are injected with increasing doses of test drug and are tested at a predetermined time.

Structure (SMILES): CC(=O)[C@H]1CC[C@H]2[C@@H]3CC[C@H]4C[C@H](O)CC[C@]4(C)[C@H]3CC[C@]12C [3α-hydroxy-5α-pregnan-20-one, reference compound]
- % Protected ([1]; IP, 50% hpbcd, 10 mg/kg, 10 minutes prior to metrazol (85 mg/kg)): 100%
- ED50 ([1]; Mus musculus, metrazol s.c., steroid i.p., 20% hydroxypropyl-β-cyclodextrin in water): 4.9 mg/kg
- activity (mice; 10 & 20 mg/kg, compared to control groups): significant (p < 0.01) increases
- number of transitions between the dark box and the light box (mice; at doses tested, versus control (Dunnett's t-test)): significantly increased
- Vogel (% of control) (rats): 431.1 % of control
